The text below walks through data of US6342534B1, “Analogs of biologically active, naturally occurring polyamines, pharmaceutical compositions and methods of treatment” (University of Florida Research Foundation, Inc., priority 1986, dated 2002).

Assay [1] has as its system a variety of tumors in cell culture. Description: Anti-neoplastic activity against tumors in cell culture. The assay is classed as cell-based. The source says:
(§1) If there is any significance to the role of charge interaction in the biological properties of the polyamine analogs, alterations in the polyamine methylene backbone should have significant impact on the compound's biological properties. […] The trifluoroethyl group substantially reduces the pKa of the terminal nitrogens and they are no longer protonated [J. Org. Chem., Vol. 24, “Fluorine containing nitrogen compounds—I Trifluoroethylamines,” Bissel et al, pages 1256-1259 (1959)]. Even though the dimensions of bis-β,β,β-trifluoroethylspermine and diethylspermine are essentially the same, what was once a tetracationic spermine analog is now only a dication. […] The same phenomenon is observed when one acetylates a terminal nitrogen of spermine. The amide nitrogen is not protonated at physiological pH, and the compound has no anti-neoplastic properties and behaves very much like spermidine in displacing ethidium iodide from DNA.

The test system of another assay is calf thymus DNA. Put plainly: Displacement of ethidium iodide from calf thymus DNA. Particulars: compared with natural polyamines. It is filed as binding.
Source text: as §1

For assay [2] the following is noted: cited from earlier work.
Another assay has as its system L1210 cells. Put plainly: Growth inhibition of L1210 cells (IC50 at 48/96 h). The assay is classed as cell-based. The following applies: Mus musculus.
Setting [3] is: Table 1, 48 h, read-out: IC50 (μM) of L1210 cells at 48 h.
Setting [4] is: Table 1, 96 h, read-out: IC50 (μM) of L1210 cells at 96 h.

Where two headings read alike, the source gives them in different places.

Take `FC(F)(F)CNCCCNCCCCNCCCNCC(F)(F)F` [BTFESPM, bis-β,β,β-trifluoroethylspermine]: the anti-neoplastic activity entry in assay [1] is “essentially disappears”. In addition, the “ability to displace ethidium iodide from calf thymus DNA” value with calf thymus DNA is on record as “behave more like putrescine than spermine”.
For `CCNCCCCNCCCCNCCCCNCC` [DEHSPM, diethyl-homospermine], the “SAT up-regulation (factor)” value in assay [2] was “little impact on SAT levels”.
Regarding `c1cc(CNCCCCNCc2ccncc2)ccn1`, the IC50 in the assay on L1210 cells (setting [3]) was over 100 µM; with L1210 cells (setting [4]) it was 90 µM.
The corresponding values for `C(CCNCCC1CCNCC1)CNCCC1CCNCC1` are over 100 µM and 0.25 µM.
Turning to `CCNCCCNCCCCNCCCNCC` [DESPM, N^1,N^12-diethylspermine], the anti-neoplastic activity entry in assay [1] was “quite active”. In addition, the “SAT up-regulation (factor)” value in assay [2] is on record as 200 fold.
For `c1cc(CCNCCNCCc2ccncc2)ccn1`, the IC50 with L1210 cells (setting [3]) and in the assay with L1210 cells (setting [4]) was over 100 µM throughout.
`C(CCNCC1CCNCC1)CNCC1CCNCC1`: the IC50 is 2 µM in the assay on L1210 cells (setting [3]) and 0.2 µM with L1210 cells (setting [4]).
For `CCNCCCNCCCNCCCNCC` [DENSPM, diethylnorspermine], the “SAT up-regulation (factor)” value in assay [2] was 1,200 fold.

Broadly, the IC50 is the concentration that gives 50% inhibition.
